Among the data in patent US11548870B2, “Compounds useful as inhibitors of helios protein” (Bristol-Myers Squibb Company, priority 2019, dated 2023) are DC50 and Dmax values, retold here.

Read-outs that look alike come from different tables or passages of the source.

The target of assay [1] is T1, Helios (Homo sapiens, UniProt Q96SW2+Q9UKS7).
T1 construct: fluorescently labelled antibodies against Helios and Ikaros; endogenous in cells; host or cells: Jurkat cells
The assay can be described thus: Helios Cellular Degradation Assay (flow cytometry, Helios-PE antibody staining, 72 h). Type of assay: cell-based. Conditions: for Dmax: Jurkat, read-out: Helios Dmax. In outline:
(§1)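 Flow cytometry of fixed, permeabilized Jurkat cells stained with anti-Helios-PE and anti-Ikaros-Alexa488 (1 h, room temperature) measured remaining protein. Treatment lasted 72 h at 37 °C, 5% CO2, at 80,000 cells/well in RPMI with 10% FBS.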
Background: In flow cytometry, cells or beads pass a laser one at a time.

The target of assay [2] is T2, Ikaros (Homo sapiens, UniProt Q13422).
T2 construct: fluorescently labelled antibodies against Helios and Ikaros; endogenous in cells; host or cells: Jurkat cells
The assay can be described thus: Helios Cellular Degradation Assay, Ikaros readout (flow cytometry, Ikaros-Alexa488 antibody staining, 72 h). Type of assay: cell-based. The conditions noted are these: Jurkat cells, 72 h incubation, flow cytometry; for Dmax: Jurkat, read-out: Ikaros Dmax. In outline: as §1

[3] abbreviates: Jurkat cells, 72 h incubation, flow cytometry.

T1 sequence (Q9UKS7 whole entry): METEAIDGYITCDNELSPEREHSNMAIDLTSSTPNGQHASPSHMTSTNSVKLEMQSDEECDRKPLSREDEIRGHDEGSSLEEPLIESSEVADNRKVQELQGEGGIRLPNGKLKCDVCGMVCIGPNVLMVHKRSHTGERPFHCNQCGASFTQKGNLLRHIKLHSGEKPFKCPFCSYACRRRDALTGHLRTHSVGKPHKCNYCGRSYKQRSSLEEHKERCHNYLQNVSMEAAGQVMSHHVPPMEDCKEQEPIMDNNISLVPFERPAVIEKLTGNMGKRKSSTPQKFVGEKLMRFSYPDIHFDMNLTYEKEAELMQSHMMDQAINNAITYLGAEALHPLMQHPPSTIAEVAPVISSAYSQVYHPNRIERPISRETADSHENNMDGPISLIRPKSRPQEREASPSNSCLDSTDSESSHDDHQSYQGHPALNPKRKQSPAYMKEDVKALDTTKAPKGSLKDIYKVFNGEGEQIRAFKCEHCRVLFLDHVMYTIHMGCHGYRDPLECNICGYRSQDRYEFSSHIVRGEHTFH
T1 sequence (Q96SW2 whole entry): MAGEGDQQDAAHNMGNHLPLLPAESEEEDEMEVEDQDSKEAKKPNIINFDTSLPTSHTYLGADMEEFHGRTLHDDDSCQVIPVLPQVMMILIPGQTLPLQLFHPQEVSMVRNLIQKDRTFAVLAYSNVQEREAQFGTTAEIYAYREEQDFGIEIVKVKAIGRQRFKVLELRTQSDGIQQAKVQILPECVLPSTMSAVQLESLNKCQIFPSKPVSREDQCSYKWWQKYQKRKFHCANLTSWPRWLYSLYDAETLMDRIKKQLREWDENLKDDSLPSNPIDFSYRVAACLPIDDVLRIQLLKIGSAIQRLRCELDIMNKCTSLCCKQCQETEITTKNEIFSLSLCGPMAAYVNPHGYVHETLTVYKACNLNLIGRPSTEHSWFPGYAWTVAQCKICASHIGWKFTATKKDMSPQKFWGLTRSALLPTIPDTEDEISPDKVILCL
T1 sequence (Q16531 whole entry partner): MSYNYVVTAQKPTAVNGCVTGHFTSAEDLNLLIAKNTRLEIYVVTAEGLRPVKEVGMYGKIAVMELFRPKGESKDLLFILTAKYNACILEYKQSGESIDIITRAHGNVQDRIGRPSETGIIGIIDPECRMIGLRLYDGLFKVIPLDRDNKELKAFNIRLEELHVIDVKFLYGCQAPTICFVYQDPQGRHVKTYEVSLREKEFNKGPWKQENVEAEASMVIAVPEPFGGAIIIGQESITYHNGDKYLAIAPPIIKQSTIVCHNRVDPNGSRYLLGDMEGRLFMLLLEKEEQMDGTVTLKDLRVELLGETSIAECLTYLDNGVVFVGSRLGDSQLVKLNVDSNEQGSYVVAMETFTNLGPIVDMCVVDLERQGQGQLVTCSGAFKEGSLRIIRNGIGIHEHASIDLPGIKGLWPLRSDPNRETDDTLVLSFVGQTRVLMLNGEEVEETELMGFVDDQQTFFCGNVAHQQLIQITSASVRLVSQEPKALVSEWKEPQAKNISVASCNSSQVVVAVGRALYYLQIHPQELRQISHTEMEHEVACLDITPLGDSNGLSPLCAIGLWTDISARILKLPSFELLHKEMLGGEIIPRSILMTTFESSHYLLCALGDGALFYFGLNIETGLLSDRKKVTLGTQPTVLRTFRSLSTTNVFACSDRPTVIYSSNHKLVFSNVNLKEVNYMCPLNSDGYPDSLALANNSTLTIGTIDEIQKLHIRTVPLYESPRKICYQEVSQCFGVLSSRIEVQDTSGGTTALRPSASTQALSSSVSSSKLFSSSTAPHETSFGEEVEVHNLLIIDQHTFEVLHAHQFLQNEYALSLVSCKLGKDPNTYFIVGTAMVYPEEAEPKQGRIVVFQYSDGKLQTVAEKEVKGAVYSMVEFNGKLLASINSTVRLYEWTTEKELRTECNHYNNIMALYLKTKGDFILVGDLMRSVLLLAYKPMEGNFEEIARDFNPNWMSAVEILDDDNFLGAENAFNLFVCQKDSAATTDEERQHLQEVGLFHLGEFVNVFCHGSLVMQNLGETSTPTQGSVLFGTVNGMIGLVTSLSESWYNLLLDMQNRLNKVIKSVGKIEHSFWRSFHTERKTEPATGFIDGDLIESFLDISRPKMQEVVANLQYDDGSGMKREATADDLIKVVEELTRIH
T2 sequence (Q96SW2 whole entry partner): as the sequence (Q96SW2 whole entry) above
T2 sequence (Q16531 whole entry partner): as the sequence (Q16531 whole entry partner) above
T2 sequence (Q13422 whole entry): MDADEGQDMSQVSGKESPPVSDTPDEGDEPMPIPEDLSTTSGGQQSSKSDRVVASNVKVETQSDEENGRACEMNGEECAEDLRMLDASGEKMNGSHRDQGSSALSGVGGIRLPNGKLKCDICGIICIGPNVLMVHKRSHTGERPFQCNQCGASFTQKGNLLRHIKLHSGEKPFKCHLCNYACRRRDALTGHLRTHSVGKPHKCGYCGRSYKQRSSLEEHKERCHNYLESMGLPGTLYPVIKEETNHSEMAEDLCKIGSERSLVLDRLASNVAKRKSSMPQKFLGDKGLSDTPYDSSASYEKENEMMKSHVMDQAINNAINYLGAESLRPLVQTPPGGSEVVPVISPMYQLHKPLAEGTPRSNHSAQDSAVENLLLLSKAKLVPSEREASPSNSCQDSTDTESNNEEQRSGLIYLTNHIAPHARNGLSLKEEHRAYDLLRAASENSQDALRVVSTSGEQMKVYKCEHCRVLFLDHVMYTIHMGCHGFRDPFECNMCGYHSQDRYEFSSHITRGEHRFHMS

Take `CC1(C)CCN(Cc2ccnc(-c3ccc4c(c3)CN(C3CCC(=O)NC3=O)C4=O)c2)C1` (centres unmarked) [Example 118, 3-(5-(4-((3,3-dimethylpyrrolidin-1-yl)methyl)pyridin-2-yl)-1-oxoisoindolin-2-yl)piperidine-2,6-dione]: the DC50 was 11 nM in assay [1] (setting [3]) and more than 10000 nM in assay [2]. The Dmax in assay [1] (setting [3]) was 90%; in assay [2], 12%.

As to `CC1CCC(C)N1Cc1ccnc(-c2ccc3c(c2)CN(C2CCC(=O)NC2=O)C3=O)c1` (centres unmarked) [Example 119, 3-(5-(4-((2,5-dimethylpyrrolidin-1-yl)methyl)pyridin-2-yl)-1-oxoisoindolin-2-yl)piperidine-2,6-dione], the DC50 in assay [1] (setting [3]) was 2360 nM; in assay [2], more than 10000 nM. In addition, the Dmax turned out to be 53% in assay [1] (setting [3]) and 3% in assay [2].

As for `C[C@@H]1CCC[C@H](C)N1Cc1ccnc(-c2ccc3c(c2)CN(C2CCC(=O)NC2=O)C3=O)c1` (stereo partly drawn) [Example 120, 3-(5-(4-(((2R,6S)-2,6-dimethylpiperidin-1-yl)methyl)pyridin-2-yl)-1-oxoisoindolin-2-yl)piperidine-2,6-dione], in assay [1] (setting [3]), it took 85 nM to reach half-maximal degradation (DC50) and the Dmax stood at 84%. In assay [2], the DC50 was more than 10000 nM and the Dmax is 3%.

Take `CC1(c2ccc(N)cc2)CCN(Cc2ccnc(-c3ccc4c(c3)CN(C3CCC(=O)NC3=O)C4=O)c2)CC1` (centres unmarked) [Example 121, 3-(5-(4-((4-(4-aminophenyl)-4-methylpiperidin-1-yl)methyl)pyridin-2-yl)-1-oxoisoindolin-2-yl)piperidine-2,6-dione]: the DC50 in assay [1] (setting [3]) is 24 nM; in assay [2] it was more than 10000 nM. Besides, the values for the Dmax in assay [1] and in assay [2] were 77% and 19%, respectively.

For the compound `C[C@@H](NCc1ccnc(-c2ccc3c(c2)CN(C2CCC(=O)NC2=O)C3=O)c1)c1ccccc1` (stereo partly drawn) [Example 122, 3-(1-oxo-5-(4-((((R)-1-phenylethyl)amino)methyl)pyridin-2-yl)isoindolin-2-yl)piperidine-2,6-dione], in assay [1] (setting [3]), the DC50 was found to be 14 nM and the Dmax is 88%. Moreover, in assay [2], the DC50 is more than 10000 nM and the Dmax came out at 4%.

As for `C[C@H](NCc1ccnc(-c2ccc3c(c2)CN(C2CCC(=O)NC2=O)C3=O)c1)c1ccccc1` (stereo partly drawn) [Example 123, 3-(1-oxo-5-(4-((((S)-1-phenylethyl)amino)methyl)pyridin-2-yl)isoindolin-2-yl) piperidine-2,6-dione], the DC50 is 7 nM in assay [1] (setting [3]) and more than 10000 nM in assay [2]. Further, the Dmax in assay [1] (setting [3]) stood at 92%; in assay [2] it was 8%.

For the compound `O=C1CCC(N2Cc3cc(-c4cc(CNCC5(O)CCCCC5)ccn4)ccc3C2=O)C(=O)N1` (centres unmarked) [Example 124, 3-(5-(4-((((1-hydroxycyclohexyl)methyl)amino)methyl)pyridin-2-yl)-1-oxoisoindolin-2-yl)piperidine-2,6-dione], the values for the DC50 in assay [1] (setting [3]) and in assay [2] were 58 nM and more than 10000 nM, respectively. Moreover, the Dmax in assay [1] (setting [3]) came to 95%; in assay [2], 11%.

With `C[C@@H]1CCCN1Cc1ccnc(-c2ccc3c(c2)CN(C2CCC(=O)NC2=O)C3=O)c1` (stereo partly drawn) [Example 125, 3-(5-(4-(((R)-2-methylpyrrolidin-1-yl)methyl)pyridin-2-yl)-1-oxoisoindolin-2-yl) piperidine-2,6-dione], the DC50 in assay [1] (setting [3]) was 16 nM; in assay [2] it was more than 10000 nM. For the same compound, the values for the Dmax in assay [1] (setting [3]) and in assay [2] were 93% and 8%, respectively.

Consider `CC1CC(NCc2ccnc(-c3ccc4c(c3)CN(C3CCC(=O)NC3=O)C4=O)c2)CCO1` (centres unmarked) [Example 126, 3-(5-(4-(((2-methyltetrahydro-2H-pyran-4-yl)amino)methyl)pyridin-2-yl)-1-oxoisoindolin-2-yl) piperidine-2,6-dione], for which the figures for the DC50 in assay [1] (setting [3]) and in assay [2] were 82 nM and more than 10000 nM, respectively. In addition, the Dmax in assay [1] (setting [3]) came to 99%; in assay [2], 22%.

For `O=C1CCC(N2Cc3cc(-c4cc(CN5CCC6(CC5)CC6)ccn4)ccc3C2=O)C(=O)N1` (centres unmarked) [Example 127, 3-(5-(4-((6-azaspiro[2.5]octan-6-yl)methyl)pyridin-2-yl)-1-oxoisoindolin-2-yl)piperidine-2,6-dione], in assay [1] (setting [3]), the DC50 is 35 nM and the Dmax was determined as 84%. In assay [2], the DC50 is more than 10000 nM and the Dmax stood at 6%.

With `O=C1CCC(N2Cc3cc(-c4cc(CNCCCCO)ccn4)ccc3C2=O)C(=O)N1` (centres unmarked) [Example 128, 3-(5-(4-(((4-hydroxybutyl)amino)methyl)pyridin-2-yl)-1-oxoisoindolin-2-yl)piperidine-2,6-dione], the DC50 was 93 nM in assay [1] (setting [3]) and more than 10000 nM in assay [2]. For the same compound, the Dmax in assay [1] (setting [3]) was 94%; in assay [2], 28%.

Turning to `O=C1CCC(N2Cc3cc(-c4cc(CNCC5CCO5)ccn4)ccc3C2=O)C(=O)N1` (centres unmarked) [Example 129, 3-(5-(4-(((oxetan-2-ylmethyl)amino)methyl)pyridin-2-yl)-1-oxoisoindolin-2-yl)piperidine-2,6-dione], the half-maximal degradation concentration (DC50) in assay [1] (setting [3]) was 232 nM; in assay [2], more than 10000 nM. The results for the Dmax in assay [1] (setting [3]) and in assay [2] were 74% and 2%, respectively.

As for `CC(C)OC1CN(Cc2ccnc(-c3ccc4c(c3)CN(C3CCC(=O)NC3=O)C4=O)c2)C1` (centres unmarked) [Example 130, 3-(5-(4-((3-isopropoxyazetidin-1-yl)methyl)pyridin-2-yl)-1-oxoisoindolin-2-yl)piperidine-2,6-dione], in assay [1] (setting [3]), half-maximal degradation (DC50) was put at 244 nM and the Dmax was 56%. Moreover, in assay [2], the DC50 is more than 10000 nM and the Dmax was 13%.

In the case of `O=C1CCC(N2Cc3cc(-c4cc(CN[C@H](CCO)c5ccccc5)ccn4)ccc3C2=O)C(=O)N1` (stereo partly drawn) [Example 131, 3-(5-(4-((((R)-3-hydroxy-1-phenylpropyl)amino)methyl)pyridin-2-yl)-1-oxoisoindolin-2-yl)piperidine-2,6-dione], the DC50 in assay [1] (setting [3]) was 14 nM; in assay [2], more than 10000 nM. The values for the Dmax in assay [1] (setting [3]) and in assay [2] were 83% and 9%, respectively.

`Cc1ccc(S(=O)(=O)C2CCN(Cc3ccnc(-c4ccc5c(c4)CN(C4CCC(=O)NC4=O)C5=O)c3)CC2)cc1` (centres unmarked) [Example 132, 3-(1-oxo-5-(4-((4-tosylpiperidin-1-yl)methyl)pyridin-2-yl)isoindolin-2-yl)piperidine-2,6-dione]: the DC50 in assay [1] (setting [3]) and in assay [2] was more than 10000 nM throughout. For the same compound, the Dmax is 28% in assay [1] (setting [3]) and 13% in assay [2].

As for `O=C1CCC(N2Cc3cc(-c4cc(CN5CCC[C@H]5c5ccccc5)ccn4)ccc3C2=O)C(=O)N1` (stereo partly drawn) [Example 133, 3-(1-oxo-5-(4-(((S)-2-phenylpyrrolidin-1-yl)methyl)pyridin-2-yl)isoindolin-2-yl)piperidine-2,6-dione], the values for the DC50 in assay [1] (setting [3]) and in assay [2] were 75 nM and more than 10000 nM, respectively. Moreover, the results for the Dmax in assay [1] (setting [3]) and in assay [2] were 84% and 7%, respectively.

As to `O=C1CCC(N2Cc3cc(-c4cc(CN5CCC[C@@H]5c5ccccc5)ccn4)ccc3C2=O)C(=O)N1` (stereo partly drawn) [Example 134, 3-(1-oxo-5-(4-(((R)-2-phenylpyrrolidin-1-yl)methyl)pyridin-2-yl)isoindolin-2-yl)piperidine-2,6-dione], in assay [1] (setting [3]), the DC50 came out at 16 nM and the Dmax was found to be 95%. In addition, in assay [2], the DC50 is more than 10000 nM and the Dmax is 19%.

In the case of `O=C1CCC(N2Cc3cc(-c4cc(CN5CCC[C@@H](c6ccccc6)C5)ccn4)ccc3C2=O)C(=O)N1` (stereo partly drawn) [Example 135, 3-(1-oxo-5-(4-(((S)-3-phenylpiperidin-1-yl)methyl)pyridin-2-yl)isoindolin-2-yl)piperidine-2,6-dione], in assay [1] (setting [3]), half-maximal degradation (DC50) was put at 1310 nM and the Dmax came to 60%. In addition, in assay [2], the DC50 is more than 10000 nM and the Dmax came to 4%.

With `C[C@@H](c1ccccc1)N(C)Cc1ccnc(-c2ccc3c(c2)CN(C2CCC(=O)NC2=O)C3=O)c1` (stereo partly drawn) [Example 136, 3-(5-(4-((methyl((S)-1-phenylethyl)amino)methyl)pyridin-2-yl)-1-oxoisoindolin-2-yl)piperidine-2,6-dione], the DC50 in assay [1] (setting [3]) was 84 nM; in assay [2], more than 10000 nM. The greatest degradation seen (Dmax) in assay [1] (setting [3]) is 62%; in assay [2], 0%.

For `C[C@H](c1ccccc1)N(C)Cc1ccnc(-c2ccc3c(c2)CN(C2CCC(=O)NC2=O)C3=O)c1` (stereo partly drawn) [Example 137, 3-(5-(4-((methyl((R)-1-phenylethyl)amino)methyl)pyridin-2-yl)-1-oxoisoindolin-2-yl)piperidine-2,6-dione], in assay [1] (setting [3]), it took 98 nM to reach half-maximal degradation (DC50) and the Dmax came to 67%. Besides, in assay [2], the DC50 is more than 10000 nM and the Dmax was determined as 8%.

For `O=C1CCC(N2Cc3cc(-c4cc(CN5CC[C@H](c6ccccc6)C5)ccn4)ccc3C2=O)C(=O)N1` (stereo partly drawn) [Example 138, 3-(1-oxo-5-(4-(((R)-3-phenylpyrrolidin-1-yl)methyl)pyridin-2-yl)isoindolin-2-yl)piperidine-2,6-dione], in assay [1] (setting [3]), the DC50 was determined as 37 nM and the Dmax stood at 82%. In assay [2], the DC50 is more than 10000 nM and the Dmax was 18%.

As to `O=C1CCC(N2Cc3cc(-c4cc(CN5CC[C@@H](c6ccccc6)C5)ccn4)ccc3C2=O)C(=O)N1` (stereo partly drawn) [Example 139, 3-(1-oxo-5-(4-(((S)-3-phenylpyrrolidin-1-yl)methyl)pyridin-2-yl)isoindolin-2-yl)piperidine-2,6-dione], in assay [1] (setting [3]), half-maximal degradation (DC50) was put at 25 nM and the Dmax is 91%. In assay [2], the DC50 was more than 10000 nM and the Dmax turned out to be 3%.

As for `CN[C@@H]1CCCC[C@H]1N(C)Cc1ccnc(-c2ccc3c(c2)CN(C2CCC(=O)NC2=O)C3=O)c1` (stereo partly drawn) [Example 140, 3-(5-(4-((methyl((1R,2R)-2-(methylamino)cyclohexyl)amino)methyl)pyridin-2-yl)-1-oxoisoindolin-2-yl)piperidine-2,6-dione], in assay [1] (setting [3]), the DC50 worked out at 12 nM and the Dmax was determined as 76%. In assay [2], the DC50 was more than 10000 nM and the Dmax came to 22%.

The term DC50 denotes the midpoint of the concentration-degradation curve. Higher therefore signals a less potent degrader. Broadly, the Dmax is the largest share of the target that was removed.
